Test results: ChEMBL document CHEMBL3885861, “Open TG-GATES”

Species: Rattus norvegicus
Experiment: Open TG-GATES - Regimen: Daily Repeat
Format: toxicity, organism-based, Sprague-Dawley
Set-up: regimen Daily Repeat, gender Male, age 6 weeks
Details: in vivo, po, route gavage; for APTT / Bas / Eos / Fbg / Hb / Ht / Lym / MCH / MCHC / MCV / Mono / Neu / RBC / Ret / WBC / Plat: tissue Blood; for KIDNEY_L / KIDNEY_R / KIDNEY_TOTAL: tissue Kidney; for ALP / ALT / AST / BUN / CRE / Ca / Cl / DBIL / GLC / IP / K / LDH / Na / PL / RALB / TBIL / TC / TG / TP / gamma-GTP: tissue Plasma
[1] = 150 mg/kg, 72 h, dose level Middle, time 3 day
[2] = 150 mg/kg, […], dose level Middle, time 7 day
[3] = 150 mg/kg, […], dose level Middle, time 14 day
[4] = 150 mg/kg, […], dose level Middle, time 28 day
[5] = 450 mg/kg, 72 h, dose level High, time 3 day

CC(=O)Oc1ccccc1C(=O)O [ASPIRIN]
APTT [1]: 19 s
Bas [1]: 0%
Eos [1]: 1%
Fbg [1]: 227.8 mg/dL
Hb [1]: 13.4 g/dL
Ht [1]: 39.3%
Lym [1]: 80.8%
MCH [1]: 21.4 pg
MCHC [1]: 34.1%
MCV [1]: 62.7 fL
Mono [1]: 2.8%
Neu [1]: 14.4%
RBC [1]: 627.2 x10_4/ul
Ret [1]: 5.9%
WBC [1]: 108.2 x10_2/uL
KIDNEY_L [1]: 1.1 g
KIDNEY_R [1]: 1.1 g
KIDNEY_TOTAL [1]: 2.1 g
ALP [1]: 924.6 IU/L
ALT [1]: 33.4 IU/L
AST [1]: 68.4 IU/L
BUN [1]: 12.2 mg/dL
CRE [1]: 0.4 mg/dL
Ca [1]: 10.6 mg/dL
Cl [1]: 102.4 meq/L
DBIL [1]: 0.078 mg/dL
GLC [1]: 196.6 mg/dL
IP [1]: 7 mg/dL
K [1]: 3.7 meq/L
LDH [1]: 210.2 IU/L
Na [1]: 141 meq/L
PL [1]: 155.8 mg/dL
RALB [1]: 3.4 g/dL
TBIL [1]: 0.1 mg/dL
TC [1]: 73.8 mg/dL
TG [1]: 117.6 mg/dL
TP [1]: 5.6 g/dL
gamma-GTP [1]: 1 IU/L
TERMINAL_BW [2]: 268.1 g
TERMINAL_BW [3]: 320.9 g
TERMINAL_BW [4]: 404.7 g
APTT [2]: 19.3 s
Bas [2]: 0%
Eos [2]: 1%
Fbg [2]: 216 mg/dL
Hb [2]: 14 g/dL
Ht [2]: 41.1%
Lym [2]: 82.4%
MCH [2]: 20.8 pg
MCHC [2]: 34%
MCV [2]: 61.3 fL
Mono [2]: 2.4%
Neu [2]: 13.2%
Plat [2]: 119 x10_4/uL
RBC [2]: 671 x10_4/ul
Ret [2]: 4.7%
WBC [2]: 119.6 x10_2/uL
APTT [3]: 19.5 s
Bas [3]: 0%
Eos [3]: 1.8%
Fbg [3]: 204.8 mg/dL
Hb [3]: 14.9 g/dL
Ht [3]: 42.1%
Lym [3]: 77.6%
MCH [3]: 21.1 pg
MCHC [3]: 35.3%
MCV [3]: 59.7 fL
Mono [3]: 2.8%
Neu [3]: 17.2%
Plat [3]: 125.3 x10_4/uL
RBC [3]: 704.8 x10_4/ul
Ret [3]: 3.5%
WBC [3]: 156.5 x10_2/uL
APTT [4]: 21.3 s
Bas [4]: 0%
Eos [4]: 1.4%
Fbg [4]: 205.4 mg/dL
Hb [4]: 15.4 g/dL
Ht [4]: 44.6%
Lym [4]: 80.2%
MCH [4]: 19.6 pg
MCHC [4]: 34.6%
MCV [4]: 56.7 fL
Mono [4]: 2.4%
Neu [4]: 14.6%
Plat [4]: 108.6 x10_4/uL
RBC [4]: 789.2 x10_4/ul
Ret [4]: 2.2%
WBC [4]: 108.6 x10_2/uL
KIDNEY_L [2]: 1.2 g
KIDNEY_R [2]: 1.2 g
KIDNEY_TOTAL [2]: 2.3 g
KIDNEY_L [3]: 1.3 g
KIDNEY_R [3]: 1.3 g
KIDNEY_TOTAL [3]: 2.6 g
KIDNEY_L [4]: 1.5 g
KIDNEY_R [4]: 1.5 g
KIDNEY_TOTAL [4]: 3 g
ALP [2]: 901.8 IU/L
ALT [2]: 35 IU/L
AST [2]: 66.8 IU/L
BUN [2]: 16 mg/dL
CRE [2]: 0.4 mg/dL
Ca [2]: 10.4 mg/dL
Cl [2]: 102.4 meq/L
DBIL [2]: 0.094 mg/dL
GLC [2]: 211.6 mg/dL
IP [2]: 8.5 mg/dL
K [2]: 4 meq/L
LDH [2]: 222.2 IU/L
Na [2]: 141 meq/L
PL [2]: 158.4 mg/dL
RALB [2]: 3.2 g/dL
TBIL [2]: 0.1 mg/dL
TC [2]: 71.8 mg/dL
TG [2]: 153.4 mg/dL
TP [2]: 5.4 g/dL
gamma-GTP [2]: 0.6 IU/L
ALP [3]: 825.8 IU/L
ALT [3]: 36.8 IU/L
AST [3]: 77 IU/L
BUN [3]: 14.6 mg/dL
CRE [3]: 0.4 mg/dL
Ca [3]: 10.4 mg/dL
Cl [3]: 102.2 meq/L
DBIL [3]: 0.092 mg/dL
GLC [3]: 187.4 mg/dL
IP [3]: 8 mg/dL
K [3]: 4.2 meq/L
LDH [3]: 252 IU/L
Na [3]: 141.6 meq/L
PL [3]: 158.6 mg/dL
RALB [3]: 3.3 g/dL
TBIL [3]: 0.1 mg/dL
TC [3]: 72.4 mg/dL
TG [3]: 151.4 mg/dL
TP [3]: 5.5 g/dL
gamma-GTP [3]: 0.8 IU/L
ALP [4]: 641.6 IU/L
ALT [4]: 35.8 IU/L
AST [4]: 81.4 IU/L
BUN [4]: 16.2 mg/dL
CRE [4]: 0.5 mg/dL
Ca [4]: 10.2 mg/dL
Cl [4]: 102.8 meq/L
DBIL [4]: 0.1 mg/dL
GLC [4]: 229.2 mg/dL
IP [4]: 7.3 mg/dL
K [4]: 3.8 meq/L
LDH [4]: 193 IU/L
Na [4]: 142.2 meq/L
PL [4]: 149.8 mg/dL
RALB [4]: 3.4 g/dL
TBIL [4]: 0.2 mg/dL
TC [4]: 69.4 mg/dL
TG [4]: 148.8 mg/dL
TP [4]: 5.8 g/dL
gamma-GTP [4]: 0.6 IU/L
TERMINAL_BW [5]: 232.1 g
APTT [5]: 24.9 s
Bas [5]: 0%
